Source: BindingDB's records for doi:10.1016/j.bmcl.2007.11.134 (Korea Institute of Science and Technology, 2008)

Columns and labels:
[1] = Inhibition of HIV1 reverse transcriptase K103N mutant by HeLa-MAGI assay
[2] = target: Reverse transcriptase protein (Human immunodeficiency virus 1, UniProt Q9WJQ2); assay: Inhibition of HIV1 reverse transcriptase K103N mutant by HeLa-MAGI assay

For `Cc1cc(OCCCNC(N)=O)ccc1NC(=O)COc1ccc(Cl)cc1C(=O)c1cc(F)cc(C(F)(F)F)c1`, the IC50 [1] was 4 nM.
`Cc1ccccc1NC(=O)COc1ccc(Cl)cc1C(=O)c1cc(F)cc(F)c1` showed an IC50 [1] of 38 nM.
With `Cc1[nH]/c(=N/S(=O)(=O)c2cccc([N+](=O)[O-])c2)sc1C(C)(C)C` the IC50 [1] was 32400 nM.
With `Cc1cc(S(N)(=O)=O)ccc1NC(=O)COc1ccc(Cl)cc1C(=O)c1cc(C#N)cc(C(F)(F)F)c1` the IC50 [1] was 1.1 nM.
`Cc1cc(Cl)cc(C(=O)c2cc(Cl)ccc2OCC(=O)Nc2ccc(S(N)(=O)=O)cc2C)c1` gave an IC50 [1] of 3.6 nM.
Work on `Cc1cc(S(N)(=O)=O)ncc1NC(=O)COc1ccc(Cl)cc1C(=O)c1cc(Cl)cc(C#N)c1` yielded an IC50 [1] of 5 nM.
`Cc1cc(C#N)cc(C(=O)c2cc(Cl)ccc2OCC(=O)Nc2cnc(S(N)(=O)=O)cc2C)c1` gave an IC50 [1] of 7.1 nM.
`Cc1cc(C#N)cc(C(=O)c2cc(Cl)ccc2OCC(=O)Nc2ccc(S(N)(=O)=O)nc2C)c1` gave an IC50 [1] of 6 nM.
In the case of `COc1ccc(NC(=O)COc2ccc(Cl)cc2C(=O)c2cc(F)cc(F)c2)cn1`, the IC50 [1] is reported as 72 nM.
Work on `COCCOCCOc1ccc(NC(=O)COc2ccc(Cl)cc2C(=O)c2cc(F)cc(C(F)(F)F)c2)c(C)c1` yielded an IC50 [1] of 16 nM.
With `Cc1cc(NC(=O)CCN2CCOCC2)ccc1NC(=O)COc1ccc(Cl)cc1C(=O)c1cc(F)cc(F)c1` the IC50 [1] was 8.9 nM.
With `CCN(CC)CCCNc1ccc(NC(=O)COc2ccc(Cl)cc2C(=O)c2cc(F)cc(F)c2)c(C)c1` the IC50 [1] was 95 nM.
Work on `Cc1cc(S(=O)(=O)N(C)C)ccc1NC(=O)COc1ccc(Cl)cc1C(=O)c1cc(F)cc(C(F)(F)F)c1` yielded an IC50 [1] of 6 nM.
In the case of `Cc1cc(N2CC[S+]([O-])CC2)ccc1NC(=O)COc1ccc(Cl)cc1C(=O)c1ccc(C#N)cc1`, the IC50 [1] is reported as 44 nM.
`Cc1cc(N2CC[S+]([O-])CC2)ccc1NC(=O)COc1ccc(Cl)cc1C(=O)c1ccccc1` showed an IC50 [1] of 100 nM.
`COc1cc(OC)cc(C(=O)c2cc(Cl)ccc2OCC(=O)Nc2ccc(S(N)(=O)=O)cc2C)c1` showed an IC50 [1] of 372 nM.
Work on `Cc1cc(C#N)cc(C(=O)c2cc(Cl)ccc2OCC(=O)Nc2ccc(S(N)(=O)=O)cc2C)c1` yielded an IC50 [1] of 0.891 nM.
For `Cc1cc(S(N)(=O)=O)ccc1NC(=O)COc1ccc(Cl)cc1C(=O)c1cncc(C#N)c1`, the IC50 [1] was 141 nM.
Compound `Cc1cc(NCCCn2ccnc2)ccc1NC(=O)COc1ccc(Cl)cc1C(=O)c1cc(F)cc(F)c1` has an IC50 [1] of 158 nM.
`Cc1cc(NCCCN2CCCC2)ccc1NC(=O)COc1ccc(Cl)cc1C(=O)c1cc(F)cc(F)c1` gave an IC50 [1] of 110 nM.
`Cc1cc(C)cc(C(=O)c2cc(Cl)ccc2OCC(=O)Nc2ccc(S(N)(=O)=O)cc2C)c1` showed an IC50 [1] of 3.3 nM.
In the case of `O=C(COc1ccc(Cl)cc1C(=O)c1cc(F)cc(F)c1)Nc1ccc(Cl)nc1`, the IC50 [1] is reported as 68 nM.
With `Cc1nc(S(N)(=O)=O)ccc1NC(=O)COc1ccc(Cl)cc1C(=O)c1cc(Cl)cc(C#N)c1` the IC50 [1] was 3 nM.
`CNS(=O)(=O)c1ccc(NC(=O)COc2ccc(Cl)cc2C(=O)c2cc(F)cc(C(F)(F)F)c2)c(C)c1` gave an IC50 [1] of 2 nM.
`Cc1cc(S(N)(=O)=O)ccc1NC(=O)COc1ccc(Cl)cc1C(=O)c1cc(Cl)cc(Br)c1` gave an IC50 [1] of 6.2 nM.
`Cc1cc(S(N)(=O)=O)ccc1NC(=O)COc1ccc(Cl)cc1C(=O)c1cccc(C#N)c1` gave an IC50 [1] of 1.5 nM.
`Cc1cc(N2CC[S+]([O-])CC2)ccc1NC(=O)COc1ccc(Cl)cc1C(=O)c1ccccc1C#N` showed an IC50 [1] of 155 nM.
In the case of `Cc1cc(S(N)(=O)=O)ccc1NC(=O)COc1ccc(Cl)cc1C(=O)c1cc(Br)cc(C(F)(F)F)c1`, the IC50 [1] is reported as 93 nM.
With `Cc1cc(N2CC[S+]([O-])CC2)ccc1NC(=O)COc1ccc(Cl)cc1C(=O)c1cccc(C#N)c1` the IC50 [1] was 5 nM.
Work on `Cc1cc(C#N)cc(C(=O)c2cc(Cl)ccc2OCC(=O)Nc2ncc(S(N)(=O)=O)cc2C)c1` yielded an IC50 [1] of 93 nM.
Work on `Cc1c(C(C)(C)C)s/c(=N\S(=O)(=O)c2cc(Cl)ccc2N)n1C` [2-amino-N-[(2Z)-5-tert-butyl-3,4-dimethyl-2,3-dihydro-1,3-thiazol-2-ylidene]-5-chlorobenzene-1-sulfonamide] yielded an IC50 [1] of 15800 nM.
With `Cc1c(C(C)(C)C)s/c(=N\S(=O)(=O)c2cccc([N+](=O)[O-])c2)n1C` [3-substituted thiazolidene deriv. 17a] the IC50 [2] was 12.9 µM.
`Cc1c(C(C)C)s/c(=N\S(=O)(=O)c2cc(Br)ccc2C#N)n1C` [5-Bromo-2-cyano-N-(5-isopropyl-3,4-dimethyl-1,3-thiazol-2(3H)-ylidene)benzenesulfonamide] showed an IC50 [1] of 3980 nM.
In the case of `CC(C)c1s/c(=N\S(=O)(=O)c2cc(Cl)ccc2C#N)n(C)c1Cl` [5-Chloro-N-(4-chloro-5-isopropyl-3-methyl-1,3-thiazol-2(3H)-ylidene)-2-cyanobenzenesulfonamide], the IC50 [1] is reported as 3980 nM.
`CC(C)c1s/c(=N\S(=O)(=O)c2cc(Br)ccc2O)n(C)c1Cl` [5-bromo-N-[(2Z)-4-chloro-3-methyl-5-(propan-2-yl)-2,3-dihydro-1,3-thiazol-2-ylidene]-2-hydroxybenzene-1-sulfonamide] showed an IC50 [1] of 40 nM.
With `Cc1c(C(C)C)s/c(=N\S(=O)(=O)c2cc(Cl)ccc2C#N)n1C` [5-chloro-2-cyano-N-[(2Z)-3,4-dimethyl-5-(propan-2-yl)-2,3-dihydro-1,3-thiazol-2-ylidene]benzene-1-sulfonamide] the IC50 [1] was 6310 nM.
For `CC(C)c1s/c(=N\S(=O)(=O)c2cc(Cl)ccc2O)n(C)c1Cl` [5-chloro-N-[(2Z)-4-chloro-3-methyl-5-(propan-2-yl)-2,3-dihydro-1,3-thiazol-2-ylidene]-2-hydroxybenzene-1-sulfonamide], the IC50 [1] was 158 nM.
`Cc1cc(OCCCS(N)(=O)=O)ccc1NC(=O)COc1ccc(Cl)cc1C(=O)c1cc(F)cc(C(F)(F)F)c1` [GW3011] gave an IC50 [1] of 4 nM.
`Cc1cc(S(N)(=O)=O)ccc1NC(=O)COc1ccc(Cl)cc1C(=O)c1cc(F)cc(C(F)(F)F)c1` [GW4511] showed an IC50 [1] of 2 nM.
`Cc1cc(S(N)(=O)=O)ccc1NC(=O)COc1ccc(Cl)cc1C(=O)c1cc(Cl)cc(C#N)c1` [GW678248] gave an IC50 [1] of 1 nM.
`Cc1c(C(C)C)s/c(=N\S(=O)(=O)c2cccc([N+](=O)[O-])c2)n1C` [N-(3,4-Dimethyl-5-isopropyl-1,3-thiazol-2(3H)-ylidene)-3-nitrobenzenesulfonamide] showed an IC50 [1] of 20000 nM.
In the case of `C=Cc1s/c(=N\S(=O)(=O)c2cccc([N+](=O)[O-])c2)n(C)c1C` [N-(3,4-Dimethyl-5-vinyl-1,3-thiazol-2(3H)-ylidene)-3-nitrobenzenesulfonamide], the IC50 [1] is reported as 6170 nM.
`CC(C)c1s/c(=N\S(=O)(=O)c2cc(C#N)ccc2C#N)n(C)c1Cl` [N-(4-Chloro-5-isopropyl-3-methyl-1,3-thiazol-2(3H)-ylidene)-2,5-dicyanobenzenesulfonamide] showed an IC50 [1] of 3020 nM.
In the case of `Cc1c(C(C)(C)C)s/c(=N\S(=O)(=O)c2cc(Cl)ccc2O)n1C` [N-(5-tert-Butyl-3,4-dimethyl-1,3-thiazol-2(3H)-ylidene)-5-chloro-2-hydroxybenzenesulfonamide], the IC50 [1] is reported as 1000 nM.
Work on `CC(C)c1s/c(=N\S(=O)(=O)c2cccc([N+](=O)[O-])c2)n(C)c1C(F)(F)F` [N-[(2Z)-3-methyl-5-(propan-2-yl)-4-(trifluoromethyl)-2,3-dihydro-1,3-thiazol-2-ylidene]-3-nitrobenzene-1-sulfonamide] yielded an IC50 [1] of 41700 nM.
For `CCc1s/c(=N\S(=O)(=O)c2cccc([N+](=O)[O-])c2)n(C)c1C` [N-[(2Z)-5-ethyl-3,4-dimethyl-2,3-dihydro-1,3-thiazol-2-ylidene]-3-nitrobenzene-1-sulfonamide], the IC50 [1] was 6310 nM.
With `Cc1c(C(C)(C)C)s/c(=N\S(=O)(=O)c2ccccc2O)n1C` [N-[(2Z)-5-tert-butyl-3,4-dimethyl-2,3-dihydro-1,3-thiazol-2-ylidene]-2-hydroxybenzene-1-sulfonamide] the IC50 [1] was 31600 nM.
`Cc1c(C(C)(C)C)s/c(=N\S(=O)(=O)c2cccc(Cl)c2)n1C` [N-[(2Z)-5-tert-butyl-3,4-dimethyl-2,3-dihydro-1,3-thiazol-2-ylidene]-3-chlorobenzene-1-sulfonamide] showed an IC50 [1] of 10000 nM.
`CC(C)c1s/c(=N\S(=O)(=O)c2cccc([N+](=O)[O-])c2)n(C)c1Cl` [thiazolidenebenzenesulfonamide deriv. 17k] gave an IC50 [1] of 6920 nM.
For `Cc1c(C(C)C)s/c(=N\S(=O)(=O)c2cc(C#N)ccc2C#N)n1C` [thiazolidenebenzenesulfonamide deriv.], the IC50 [1] was 3980 nM.
